What follows are molecules tested on Human immunodeficiency virus (assay: Antiviral activity against HIV infected in human 1A2 cells assessed as protection against virus-induced cytopathic effect by measuring cell viability at 5 ug/ml after 96 hrs by MTT assay relative to control).
Assay type: functional
For `COC(=O)NCCc1ccccc1C(=O)NCCc1ccccc1`, the Activity was 17 - 48%. In the case of `COC(=O)NCCc1ccccc1C(=O)NCCc1ccccc1C(=O)NCCc1ccccc1C(=O)NCCc1ccccc1`, the Activity is reported as 17 - 48%. In the case of `O=C(NCCc1ccccc1)NCCc1ccccc1C(=O)NCCc1ccccc1C(=O)NCCc1ccccc1`, the Activity is reported as 17 - 48%. In the case of `COC(=O)NCCc1ccccc1C(=O)NCCc1ccccc1C(=O)NCCc1ccccc1`, the Activity is reported as 17 - 48%. For `O=C(NCCc1ccccc1)NCCc1ccccc1C(=O)NCCc1ccccc1C(=O)NCCc1ccccc1C(=O)NCCc1ccccc1`, the Activity was 17 - 48%. For `O=C(NCCc1ccccc1C(=O)NCCc1ccccc1)NCCc1ccccc1C(=O)NCCc1ccccc1`, the Activity was 17 - 48%. With `COC(=O)NCCc1ccccc1C(=O)NCCc1ccccc1C(=O)NCCc1ccccc1C(=O)NCCc1ccccc1C(=O)NCCc1ccccc1` the Activity was 17 - 48%. `O=C(NCCc1ccccc1C(=O)NCCc1ccccc1)NCCc1ccccc1C(=O)NCCc1ccccc1C(=O)NCCc1ccccc1` was tested, and the Activity was 17 - 48%.

From ChEMBL document CHEMBL4190205 (2017)
